From patent publication US8987250B2 (Gilead Sciences, Inc., priority 2012, dated 2015)
Where two headings read alike, the source gives them in different places.

Tested on: HIV-IIIb
Assay: Test A: Antiviral Assay in MT4 Cells
Format: cell-based
Settings: Human immunodeficiency virus 1, IIIB, MT4, 120 h
Procedure, shortened: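 Read-out: CellTiter-Glo chemiluminescence after 5-day incubation at 37 °C. Compounds tested as 3-fold serial dilutions (10 concentrations, quadruplicate) in RPMI 1640 with 10% FBS, on MT-4 cells pre-infected at 37 °C with HIV-IIIb at 0.004 m.o.i.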

[1] = Table 2, MT-4 cells infected with HIV-IIIb, 5 days of incubation, CellTiter-Glo, read-out: EC50

Compound | EC50 [1] [nM] | EC50 [nM]
Cc1cnc(-c2ccc3c(cnn3C)c2)cc1-c1nc2cc(C)c([C@H](OC(C)(C)C)C(=O)O)c(-c3ccc(Cl)cc3)c2s1 [Compound 289, (S)-2-(tert-butoxy)-2-(7-(4-chlorophenyl)-5-methyl-2-(5-methyl-2-(1-methyl-1H-indazol-5-yl)pyridin-4-yl)benzo[d]thiazol-6-yl)acetic acid] | 25 | 
Cc1cc2nc(-c3cc(-c4ccc5c(cnn5C)c4)ncc3C(F)F)sc2c(-c2ccc(Cl)cc2)c1[C@H](OC(C)(C)C)C(=O)O [Compound 290, (S)-2-(tert-butoxy)-2-(7-(4-chlorophenyl)-2-(5-(difluoromethyl)-2-(1-methyl-1H-indazol-5-yl)pyridin-4-yl)-5-methylbenzo[d]thiazol-6-yl)acetic acid] | 87 | 
Cc1cc2nc(-c3cc(-c4ccc5c(cnn5C)c4)ncc3F)sc2c(-c2ccc(Cl)cc2)c1[C@H](OC(C)(C)C)C(=O)O [Compound 291, (S)-2-(tert-butoxy)-2-(7-(4-chlorophenyl)-2-(5-fluoro-2-(1-methyl-1H-indazol-5-yl)pyridin-4-yl)-5-methylbenzo[d]thiazol-6-yl)acetic acid] | 76 | 
Cc1cc2nc(-c3ccc4nc(C)n(C)c4c3)sc2c(-c2ccc(Cl)cc2)c1[C@H](OC(C)(C)C)C(=O)O [Compound 292, (S)-2-(tert-butoxy)-2-(7-(4-chlorophenyl)-2-(1,2-dimethyl-1H-benzo[d]imidazol-6-yl)-5-methylbenzo[d]thiazol-6-yl)acetic acid] | 23 | 
Cc1nc2c([nH]1)CCN(c1nc3cc(C)c([C@H](OC(C)(C)C)C(=O)O)c(-c4ccc(Cl)cc4)c3s1)C2 [Compound 293, (S)-2-tert-butoxy-2-(7-(4-chlorophenyl)-5-methyl-2-(2-methyl-6,7-dihydro-1H-imidazo[4,5-c]pyridin-5(4H)-yl)benzo[d]thiazol-6-yl)acetic acid] | 215 | 
Cc1cc2nc(-c3ccc4c(c3)nc(C)n4C3CCN(C)CC3)sc2c(-c2ccc(Cl)cc2)c1[C@H](OC(C)(C)C)C(=O)O [Compound 294, (S)-2-(tert-butoxy)-2-(7-(4-chlorophenyl)-5-methyl-2-(2-methyl-1-(1-methylpiperidin-4-yl)-1H-benzo[d]imidazol-5-yl)benzo[d]thiazol-6-yl)acetic acid] | 36 | 
Cc1cc2nc(-c3ccc4c(c3)ncn4C3CCN(C)CC3)sc2c(-c2ccc(Cl)cc2)c1[C@H](OC(C)(C)C)C(=O)O [Compound 295, (S)-2-(tert-butoxy)-2-(7-(4-chlorophenyl)-5-methyl-2-(1-(1-methylpiperidin-4-yl)-1H-benzo[d]imidazol-5-yl)benzo[d]thiazol-6-yl)acetic acid] | 34 | 
Cc1cc2nc(-c3ccc4nc(C)n([C@@H]5CCN(C)C5)c4c3)sc2c(-c2ccc(Cl)cc2)c1[C@H](OC(C)(C)C)C(=O)O [Compound 296, (S)-2-tert-butoxy-2-(7-(4-chlorophenyl)-5-methyl-2-(2-methyl-1-((R)-1-methylpyrrolidin-3-yl)-1H-benzo[d]imidazol-6-yl)benzo[d]thiazol-6-yl)acetic acid] | 13 | 
Cc1cc2nc(-c3ccc4nc(C)n(C5CN(C)C5)c4c3)sc2c(-c2ccc(Cl)cc2)c1[C@H](OC(C)(C)C)C(=O)O [Compound 297, (S)-2-tert-butoxy-2-(7-(4-chlorophenyl)-5-methyl-2-(2-methyl-1-(1-methylazetidin-3-yl)-1H-benzo[d]imidazol-6-yl)benzo[d]thiazol-6-yl)acetic acid] | 17 | 
Cc1cc2nc(-c3ccc4nc(C)n(C5CNC5)c4c3)sc2c(-c2ccc(Cl)cc2)c1[C@H](OC(C)(C)C)C(=O)O [Compound 298, (S)-2-(2-(1-(azetidin-3-yl)-2-methyl-1H-benzo[d]imidazol-6-yl)-7-(4-chlorophenyl)-5-methylbenzo[d]thiazol-6-yl)-2-tert-butoxyacetic acid] | 181 | 
Cc1cc2nc(-c3ccc4nc(C)n([C@@H]5CCNC5)c4c3)sc2c(-c2ccc(Cl)cc2)c1[C@H](OC(C)(C)C)C(=O)O [Compound 299, (S)-2-tert-butoxy-2-(7-(4-chlorophenyl)-5-methyl-2-(2-methyl-1-((R)-pyrrolidin-3-yl)-1H-benzo[d]imidazol-6-yl)benzo[d]thiazol-6-yl)acetic acid] | 130 | 
Cc1cc2nc(-c3ccc4nc(C)n([C@@H]5CCN(C(C)C)C5)c4c3)sc2c(-c2ccc(Cl)cc2)c1[C@H](OC(C)(C)C)C(=O)O [Compound 300, (S)-2-tert-butoxy-2-(7-(4-chlorophenyl)-2-(1-((R)-1-isopropylpyrrolidin-3-yl)-2-methyl-1H-benzo[d]imidazol-6-yl)-5-methylbenzo[d]thiazol-6-yl)acetic acid] | 12 | 
Cc1cc2nc(-c3ccc4nc(C)n([C@H]5CCNC5)c4c3)sc2c(-c2ccc(Cl)cc2)c1[C@H](OC(C)(C)C)C(=O)O [Compound 301, (S)-2-tert-butoxy-2-(7-(4-chlorophenyl)-5-methyl-2-(2-methyl-1-((S)-pyrrolidin-3-yl)-1H-benzo[d]imidazol-6-yl)benzo[d]thiazol-6-yl)acetic acid] | 109 | 
Cc1cc2nc(-c3cnc4c(c3)nc(C)n4C)sc2c(-c2ccc(Cl)cc2)c1[C@H](OC(C)(C)C)C(=O)O [Compound 302, (S)-2-tert-butoxy-2-(7-(4-chlorophenyl)-2-(2,3-dimethyl-3H-imidazo[4,5-b]pyridin-6-yl)-5-methylbenzo[d]thiazol-6-yl)acetic acid] | 8 | 
Cc1cc2nc(-c3ccc4c(c3)[nH]c(=O)n4C)sc2c(-c2ccc(Cl)cc2)c1[C@H](OC(C)(C)C)C(=O)O [Compound 303, (S)-2-tert-butoxy-2-(7-(4-chlorophenyl)-5-methyl-2-(1-methyl-2-oxo-2,3-dihydro-1H-benzo[d]imidazol-5-yl)benzo[d]thiazol-6-yl)acetic acid] | 19 | 
Cc1cc2nc(-c3cnc(C)c(-c4ccc5c(cnn5C)c4)c3)sc2c(-c2ccc(Cl)cc2)c1[C@H](OC(C)(C)C)C(=O)O [Compound 305, (S)-2-tert-butoxy-2-(7-(4-chlorophenyl)-5-methyl-2-(6-methyl-5-(1-methyl-1H-indazol-5-yl)pyridin-3-yl)benzo[d]thiazol-6-yl)acetic acid] | 10 | 
Cc1cc2nc(-c3cc(-c4ccc5c(cnn5C)c4)cnc3C)sc2c(-c2ccc(Cl)cc2)c1[C@H](OC(C)(C)C)C(=O)O [Compound 306, (S)-2-tert-butoxy-2-(7-(4-chlorophenyl)-5-methyl-2-(2-methyl-5-(1-methyl-1H-indazol-5-yl)pyridin-3-yl)benzo[d]thiazol-6-yl)acetic acid] | 14 | 
Cc1cc2nc(-c3cccc(N4CCN(C(C)C)CC4)n3)sc2c(-c2ccc(Cl)cc2)c1[C@H](OC(C)(C)C)C(=O)O [Compound 307, (S)-2-tert-butoxy-2-(7-(4-chlorophenyl)-2-(6-(4-isopropylpiperazin-1-yl)pyridin-2-yl)-5-methylbenzo[d]thiazol-6-yl)acetic acid] |  | 4
Cc1cc2nc(-c3cccc(N4CCN(C5COC5)CC4)n3)sc2c(-c2ccc(Cl)cc2)c1[C@H](OC(C)(C)C)C(=O)O [Compound 308, (S)-2-tert-butoxy-2-(7-(4-chlorophenyl)-5-methyl-2-(6-(4-(oxetan-3-yl)piperazin-1-yl)pyridin-2-yl)benzo[d]thiazol-6-yl)acetic acid] | 6 | 
Cc1cc2nc(-c3cccc(-c4ccc5c(cnn5C)c4)n3)sc2c(-c2ccc(Cl)cc2)c1[C@H](OC(C)(C)C)C(=O)O [Compound 309, (S)-2-tert-butoxy-2-(7-(4-chlorophenyl)-5-methyl-2-(6-(1-methyl-1H-indazol-5-yl)pyridin-2-yl)benzo[d]thiazol-6-yl)acetic acid] | 37 | 
Cc1cc2nc(-c3nc(-c4ccc5c(cnn5C)c4)cs3)sc2c(-c2ccc(Cl)cc2)c1[C@H](OC(C)(C)C)C(=O)O [Compound 310, (S)-2-tert-butoxy-2-(7-(4-chlorophenyl)-5-methyl-2-(4-(1-methyl-1H-indazol-5-yl)thiazol-2-yl)benzo[d]thiazol-6-yl)acetic acid] |  | 26
Cc1cc2nc(-c3nc(-c4ccc5c(cnn5C)c4)ccc3N)sc2c(-c2ccc(Cl)cc2)c1[C@H](OC(C)(C)C)C(=O)O [Compound 311, (S)-2-(2-(3-amino-6-(1-methyl-1H-indazol-5-yl)pyridin-2-yl)-7-(4-chlorophenyl)-5-methylbenzo[d]thiazol-6-yl)-2-tert-butoxyacetic acid] | 45 | 
Cc1cc2nc(-c3cn(C)c(-c4ccc5c(cnn5C)c4)n3)sc2c(-c2ccc(Cl)cc2)c1[C@H](OC(C)(C)C)C(=O)O [Compound 312, (S)-2-tert-butoxy-2-(7-(4-chlorophenyl)-5-methyl-2-(1-methyl-2-(1-methyl-1H-indazol-5-yl)-1H-imidazol-4-yl)benzo[d]thiazol-6-yl)acetic acid] | 37 | 
Cc1ccc(-c2nc3cc(C)c([C@H](OC(C)(C)C)C(=O)O)c(-c4ccc(Cl)cc4)c3s2)nc1-c1ccc2c(cnn2C)c1 [Compound 313, (S)-2-tert-butoxy-2-(7-(4-chlorophenyl)-5-methyl-2-(5-methyl-6-(1-methyl-1H-indazol-5-yl)pyridin-2-yl)benzo[d]thiazol-6-yl)acetic acid] | 14 | 
Cc1cc2nc(-c3ccc4c(c3)c(C)nn4Cc3ccccc3)sc2c(-c2ccc(Cl)cc2)c1[C@H](OC(C)(C)C)C(=O)O [Compound 314, (S)-2-(2-(1-benzyl-3-methyl-1H-indazol-5-yl)-7-(4-chlorophenyl)-5-methylbenzo[d]thiazol-6-yl)-2-tert-butoxyacetic acid] | 42 | 
Cc1cc2nc(-c3ccc4nn(Cc5ccccc5)c(C)c4c3)sc2c(-c2ccc(Cl)cc2)c1[C@H](OC(C)(C)C)C(=O)O [Compound 315, (S)-2-(2-(2-benzyl-3-methyl-2H-indazol-5-yl)-7-(4-chlorophenyl)-5-methylbenzo[d]thiazol-6-yl)-2-tert-butoxyacetic acid] | 34 | 
